Reference: the supplement of paper PMC10307832

Key:
Test in all cases: relative viability (nuclei count vs DMSO), 5 days (fraction); higher = more cells survive
[1] = test system: PC-14
Method in brief: (§1)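 Values are medians from duplicate plates. Each reflects relative viability, defined as the nuclei count of treated wells over that of vehicle wells. Lung cancer cell lines in 1536-well plates were pin-tool dosed one day after seeding with one drug alone or with a fixed anchor-drug dose plus five library-drug doses (not always all listed) in √10 steps, then fixed, stained and imaged at 4× after 5 days.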

[2] = test system: NCI-H1734
Method in brief: as §1

[3] = test system: COR-L23
Method in brief: as §1

[4] = test system: NCI-H2405
Method in brief: as §1

[5] = test system: NCI-H1650
Method in brief: as §1

[6] = test system: NCI-H1563
Method in brief: as §1

[7] = test system: NCI-H520
Method in brief: as §1

[8] = test system: NCI-H661
Method in brief: as §1

[9] = test system: RERF-LC-KJ
Method in brief: as §1

[10] = test system: NCI-H2342
Method in brief: as §1

[11] = test system: NCI-H1355
Method in brief: as §1

[12] = test system: NCI-H322M
Method in brief: as §1

[13] = test system: PC-3 [JPC-3]
Method in brief: as §1

[14] = test system: CAL-12T
Method in brief: as §1

[15] = test system: ABC-1
Method in brief: as §1

[16] = test system: HCC-827
Method in brief: as §1

[17] = test system: EKVX
Method in brief: as §1

[18] = test system: NCI-H1437
Method in brief: as §1

[19] = test system: SW 1573
Method in brief: as §1

[20] = test system: LK-2
Method in brief: as §1

[21] = test system: H3255
Method in brief: as §1

[22] = test system: HCC-15
Method in brief: as §1

[23] = test system: NCI-H2228
Method in brief: as §1

Compound: NC(=O)Nc1cc(-c2cccc(F)c2)sc1C(=O)N[C@H]1CCCNC1 [AZD7762] + COc1cc2c(Oc3ccc(NC(=O)C4(C(=O)Nc5ccc(F)cc5)CC4)cc3F)ccnc2cc1OCCCN1CCOCC1 [Foretinib] (partner 0.25 µM)
- relative viability ([1]; first compound 0.01 µM): 1.04
- relative viability ([1]; first compound 0.03162 µM): 0.927
- relative viability ([1]; first compound 0.1 µM): 0.973
- relative viability ([1]; first compound 0.3162 µM): 0.885
- relative viability ([1]; first compound 1 µM): 0.361
- relative viability ([2]; first compound 0.01 µM): 0.979
- relative viability ([2]; first compound 0.03162 µM): 0.97
- relative viability ([2]; first compound 0.1 µM): 0.929
- relative viability ([2]; first compound 0.3162 µM): 0.807
- relative viability ([2]; first compound 1 µM): 0.436
- relative viability ([3]; first compound 0.01 µM): 1.18
- relative viability ([3]; first compound 0.03162 µM): 0.955
- relative viability ([3]; first compound 0.1 µM): 1.08
- relative viability ([3]; first compound 0.3162 µM): 0.842
- relative viability ([3]; first compound 1 µM): 0.292
- relative viability ([4]; first compound 0.01 µM): 1.13
- relative viability ([4]; first compound 0.03162 µM): 1.07
- relative viability ([4]; first compound 0.1 µM): 1.05
- relative viability ([4]; first compound 0.3162 µM): 1.03
- relative viability ([4]; first compound 1 µM): 0.67
- relative viability ([5]; first compound 0.01 µM): 1.25
- relative viability ([5]; first compound 0.03162 µM): 0.931
- relative viability ([5]; first compound 0.1 µM): 1.14
- relative viability ([5]; first compound 0.3162 µM): 0.804
- relative viability ([5]; first compound 1 µM): 0.24
- relative viability ([6]; first compound 0.01 µM): 1.04
- relative viability ([6]; first compound 0.03162 µM): 0.967
- relative viability ([6]; first compound 0.1 µM): 0.974
- relative viability ([6]; first compound 0.3162 µM): 0.94
- relative viability ([6]; first compound 1 µM): 0.83
- relative viability ([7]; first compound 0.01 µM): 0.989
- relative viability ([7]; first compound 0.03162 µM): 0.826
- relative viability ([7]; first compound 0.1 µM): 0.803
- relative viability ([7]; first compound 0.3162 µM): 0.518
- relative viability ([7]; first compound 1 µM): 0.351
- relative viability ([8]; first compound 0.01 µM): 1.08
- relative viability ([8]; first compound 0.03162 µM): 1.1
- relative viability ([8]; first compound 0.1 µM): 1.12
- relative viability ([8]; first compound 0.3162 µM): 1.03
- relative viability ([8]; first compound 1 µM): 0.598
- relative viability ([9]; first compound 0.01 µM): 0.882
- relative viability ([9]; first compound 0.03162 µM): 0.891
- relative viability ([9]; first compound 0.1 µM): 0.965
- relative viability ([9]; first compound 0.3162 µM): 0.944
- relative viability ([9]; first compound 1 µM): 0.97
- relative viability ([10]; first compound 0.01 µM): 0.992
- relative viability ([10]; first compound 0.03162 µM): 1.14
- relative viability ([10]; first compound 0.1 µM): 1.09
- relative viability ([10]; first compound 0.3162 µM): 1.1
- relative viability ([10]; first compound 1 µM): 1.25
- relative viability ([11]; first compound 0.01 µM): 0.964
- relative viability ([11]; first compound 0.03162 µM): 0.975
- relative viability ([11]; first compound 0.1 µM): 0.967
- relative viability ([11]; first compound 0.3162 µM): 1.02
- relative viability ([11]; first compound 1 µM): 0.995
- relative viability ([12]; first compound 0.01 µM): 0.979
- relative viability ([12]; first compound 0.03162 µM): 1.09
- relative viability ([12]; first compound 0.1 µM): 1.09
- relative viability ([12]; first compound 0.3162 µM): 0.601
- relative viability ([12]; first compound 1 µM): 0.315
- relative viability ([13]; first compound 0.01 µM): 1.06
- relative viability ([13]; first compound 0.03162 µM): 1.06
- relative viability ([13]; first compound 0.1 µM): 1.04
- relative viability ([13]; first compound 0.3162 µM): 1.13
- relative viability ([13]; first compound 1 µM): 1.02
- relative viability ([14]; first compound 0.01 µM): 1.34
- relative viability ([14]; first compound 0.03162 µM): 1.01
- relative viability ([14]; first compound 0.1 µM): 1.13
- relative viability ([14]; first compound 0.3162 µM): 0.874
- relative viability ([14]; first compound 1 µM): 0.217
- relative viability ([15]; first compound 0.01 µM): 1.22
- relative viability ([15]; first compound 0.03162 µM): 1.23
- relative viability ([15]; first compound 0.1 µM): 0.851
- relative viability ([15]; first compound 0.3162 µM): 0.402
- relative viability ([15]; first compound 1 µM): 0.212
- relative viability ([16]; first compound 0.01 µM): 0.975
- relative viability ([16]; first compound 0.03162 µM): 1.06
- relative viability ([16]; first compound 0.1 µM): 1.02
- relative viability ([16]; first compound 0.3162 µM): 1.08
- relative viability ([16]; first compound 1 µM): 0.853
- relative viability ([17]; first compound 0.01 µM): 0.64
- relative viability ([17]; first compound 0.03162 µM): 0.741
- relative viability ([17]; first compound 0.1 µM): 0.956
- relative viability ([17]; first compound 0.3162 µM): 0.387
- relative viability ([17]; first compound 1 µM): 0.522
- relative viability ([18]; first compound 0.01 µM): 1.27
- relative viability ([18]; first compound 0.03162 µM): 1.31
- relative viability ([18]; first compound 0.1 µM): 1.24
- relative viability ([18]; first compound 0.3162 µM): 1.02
- relative viability ([18]; first compound 1 µM): 1.13
- relative viability ([19]; first compound 0.01 µM): 0.845
- relative viability ([19]; first compound 0.03162 µM): 0.866
- relative viability ([19]; first compound 0.1 µM): 0.99
- relative viability ([19]; first compound 0.3162 µM): 1.12
- relative viability ([19]; first compound 1 µM): 1.02
- relative viability ([20]; first compound 0.01 µM): 1.38
- relative viability ([20]; first compound 0.03162 µM): 1.34
- relative viability ([20]; first compound 0.1 µM): 1.11
- relative viability ([20]; first compound 0.3162 µM): 0.864
- relative viability ([20]; first compound 1 µM): 0.722
- relative viability ([21]; first compound 0.01 µM): 1.12
- relative viability ([21]; first compound 0.03162 µM): 0.875
- relative viability ([21]; first compound 0.1 µM): 0.972
- relative viability ([21]; first compound 0.3162 µM): 0.89
- relative viability ([21]; first compound 1 µM): 0.859
- relative viability ([22]; first compound 0.01 µM): 1.06
- relative viability ([22]; first compound 0.03162 µM): 0.995
- relative viability ([22]; first compound 0.1 µM): 0.993
- relative viability ([22]; first compound 0.3162 µM): 1.06
- relative viability ([22]; first compound 1 µM): 0.983
- relative viability ([23]; first compound 0.01 µM): 0.851
- relative viability ([23]; first compound 0.03162 µM): 0.788
- relative viability ([23]; first compound 0.1 µM): 0.825
- relative viability ([23]; first compound 0.3162 µM): 0.828
- relative viability ([23]; first compound 1 µM): 0.265
